Reference: US8846704B2, “Thiopyrimidine-based compounds and uses thereof” (YM Biosciences Austraila Pty Ltd, priority 2007, dated 2014)

Molecular target: T1, FLT-3 tyrosine kinase (Homo sapiens, UniProt P36888)
T1 construct: purchased Upstate Cell Signalling Solutions, CA, USA 14-500
T1 sequence (P36888 27-993): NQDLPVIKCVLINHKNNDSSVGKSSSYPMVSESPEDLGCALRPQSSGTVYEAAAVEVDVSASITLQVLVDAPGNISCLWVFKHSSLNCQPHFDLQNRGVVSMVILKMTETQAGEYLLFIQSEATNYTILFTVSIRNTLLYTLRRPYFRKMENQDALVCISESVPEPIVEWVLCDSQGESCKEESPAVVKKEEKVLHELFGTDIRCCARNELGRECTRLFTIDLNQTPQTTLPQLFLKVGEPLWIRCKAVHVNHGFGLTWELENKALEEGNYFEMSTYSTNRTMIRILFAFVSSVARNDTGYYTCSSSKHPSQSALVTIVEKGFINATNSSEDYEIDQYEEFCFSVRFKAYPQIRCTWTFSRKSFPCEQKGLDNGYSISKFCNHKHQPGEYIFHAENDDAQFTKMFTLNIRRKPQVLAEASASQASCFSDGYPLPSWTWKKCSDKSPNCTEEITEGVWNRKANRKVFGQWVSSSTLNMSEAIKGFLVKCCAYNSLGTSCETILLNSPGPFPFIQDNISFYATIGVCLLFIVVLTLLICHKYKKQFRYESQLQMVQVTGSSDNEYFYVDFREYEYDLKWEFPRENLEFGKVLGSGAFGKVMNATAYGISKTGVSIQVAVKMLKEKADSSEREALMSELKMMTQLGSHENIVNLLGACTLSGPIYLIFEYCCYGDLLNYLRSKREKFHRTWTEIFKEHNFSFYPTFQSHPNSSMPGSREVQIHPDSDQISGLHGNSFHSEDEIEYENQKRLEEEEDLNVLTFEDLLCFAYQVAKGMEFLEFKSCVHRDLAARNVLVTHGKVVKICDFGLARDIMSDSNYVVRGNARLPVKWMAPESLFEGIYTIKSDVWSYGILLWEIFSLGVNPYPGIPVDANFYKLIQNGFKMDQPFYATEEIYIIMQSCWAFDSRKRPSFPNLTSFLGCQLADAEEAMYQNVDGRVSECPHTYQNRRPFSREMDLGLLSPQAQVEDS
Assay: Alphascreen tyrosine kinase enzyme assay, FLT-3
Type: biochemical
Settings: FLT3; read-out: FMS, FLT3, or HCK IC50_nM (FLT3)
Experimental: For screening purposes, compounds (in 100% DMSO) were warmed at 37 degrees for at least 20 minutes before use. A […] stock was initially made in assay buffer, where the final concentration of DMSO was 0.3%. The stocks were then diluted in 384 well Optiplates (Packard) where the final concentration of the compound was […].
FLT-3 tyrosine kinase enzyme was purchased from Upstate Cell Signalling Solutions, CA, USA (flt-3 catalog #: 14-500).
Kinase assays were performed in 384 well Optiplates (Packard) using an Alphascreen Protein Tyrosine Kinase PY100 detection kit The compounds were pre-incubated with affinity purified PTK domain in the presence of phosphotyrosine assay buffer (10 mM HEPES, pH 7.5, 100 mM MgCl2, 25 mM NaCl, […] and 0.1% Tween 20) for 20 minutes. The compounds were then incubated with substrate in the presence of ATP. The substrate used was susbtrate-1 with the sequence biotin-EGPWLEEEEEAYGWMDF-NH2 [SEQ. ID. NO. 13] (final concentration […]). For HCK 80 μm ATP was used and incubated for 60 minutes. Alphascreen phosphotyrosine acceptor beads followed by streptavidin donor beads at a concentration of 1/100 in stop buffer were added to each well under subdued light and incubated for 2-3 hours., The Alphascreen plates were read on a Packard Fusion Alpha instrument.

| SMILES | IC50 [µM] |
| --- | --- |
| OCc1cccc(Sc2ccnc(Nc3ccc(N4CCOCC4)cc3)n2)c1 [Compound 62, (3-(2-(4-Morpholinophenylamino)pyrimidin-4-ylthio)phenyl)methanol] | < 0.1 |
| OCc1ccc(Sc2ccnc(Nc3ccc(N4CCOCC4)cc3)n2)cc1 [Compound 67, (4-(2-(4-morpholinophenylao)pyrimidin-4-ylthio)phenyl)methanol] | < 0.1 |
| N#CCNCc1cccc(Sc2ccnc(Nc3ccc(N4CCOCC4)cc3)n2)c1 [Compound 68, 2-(3-(2-(4-morpholinophenylao)pyrimidin-4-ylthio)benzylao)acetonitrile] | < 0.5 |
